Measurements taken from patent US20220249415A1, “COMPOSITION OF AZELAIC ACID HAVING ADIPOSE TRIGLYCERIDE HYDROLYSIS EFFECT” (Korea University Research and Business Foundation, priority 2018, published 2022).
“Also recorded” adds a separate entry of the source.

Columns and labels:
hAMSC cells = assay: Treatment of human adipocyte line hAMSC with azelaic acid; assay type: cell-based; details: azelaic acid 50 μM
Protocol: The anti-obesity effect was confirmed by treating a human adipocyte line, namely hAMSC cells (Cell Bio, CEFO, Seoul Korea), with azelaic acid (50 μM).

OR2S2 = biological target: T1, OR2S2 (Homo sapiens, UniProt Q9NQN1); assay: siRNA knock-down of OR2S2 in HepG2 cells, fatty acid oxidation-related gene expression; assay type: cell-based; details: HepG2 cells during knock-down of OR2S2
T1 construct: endogenous in cells; host or cells: HepG2
T1 sequence (Q9NQN1 1-319): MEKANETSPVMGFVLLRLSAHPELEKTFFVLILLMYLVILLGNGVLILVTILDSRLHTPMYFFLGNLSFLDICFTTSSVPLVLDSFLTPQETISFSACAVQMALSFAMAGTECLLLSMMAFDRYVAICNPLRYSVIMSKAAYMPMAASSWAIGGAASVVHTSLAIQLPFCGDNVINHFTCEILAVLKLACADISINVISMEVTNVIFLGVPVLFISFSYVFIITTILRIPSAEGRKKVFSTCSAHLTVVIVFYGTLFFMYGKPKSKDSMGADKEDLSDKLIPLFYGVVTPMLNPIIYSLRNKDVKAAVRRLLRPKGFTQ
Source text: The gene expression of OR1E1, OR1K1, OR2K2, OR2S2, OR13C5, and OR51E2, corresponding to the top 6 receptors among 10 human olfactory receptors selected to be expressed in both adipose tissue and liver tissue while interacting with azelaic acid, was knocked down with siRNA in human-derived liver cell and adipocyte lines, namely HepG2 cells and hAMSC cells, respectively. Here, siRNAs that were used were OR1E2 siRNA (sc-93932), OR1K2 (sc-92810), OR2K2 (sc-92852), OR2S2 (sc-92505), OR13C5 (sc-92899), and OR51E2 (sc-76265), purchased from Santa Cruz Biotechnology Inc. (Dallas, Tx USA).
After knock-down treatment, the cell lines were treated with azelaic acid, and triglyceride hydrolysis and fatty acid oxidation-related gene expression in HepG2 cells as a human-derived liver cell line and hAMSC cells as a human-derived adipocyte line were measured.

[1] = test system: 3T3-L1 adipocytes in which the Olfr544 gene was knocked-down; assay: Lipolysis (glycerol) in adipocytes in which Olfr544 gene was knocked-down; assay type: cell-based, mouse; details: Olfr544 shRNA transfected adipocytes treated with azelaic acid for 2 hours
Protocol: After the Olfr544 gene was knocked-down in the mouse adipocytes, the adipocytes were treated with azelaic acid, and whether or not a triglyceride hydrolysis effect of azelaic acid was maintained was confirmed.

ob/ob mice = assay: Anti-obesity effect, oral administration to genetically obesity-induced ob/ob mice; assay type: in vivo, mouse; details: 50 mg/kg oral
Protocol: After orally administering azelaic acid to an ob/ob mouse (Samtako, Seoul, Korea) corresponding to a genetically obesity-induced mouse at a concentration of 50 mg/kg, a degree of obesity thereof was compared with that of a control group to which azelaic acid was not administered. More specifically, an increase in body weight, a feed intake amount, body fat, blood indices, blood lipid indices, a weight of liver tissue, ALT and AST corresponding to hepatotoxicity indices, and energy metabolism were analyzed. Changes in body weight in azelaic acid administration group and a control group were observed once a week for an experiment period of 6 weeks. Body fats (total fat, subcutaneous fat, and abdominal fat) of mice in the azelaic acid administration group to which azelaic acid was orally administered for 6 weeks and a control group were measured through micro CT image analysis. The subcutaneous fat was quantified for the entire site of the mouse, and the abdominal fat was calculated by quantifying an amount of abdominal fat at the 15th to 20th lumbar spine sites of the mouse. In order to evaluate an effect on mouse lipid metabolism of azelaic acid in the administration group to which azelaic acid was orally administered for 6 weeks and the control group, concentrations of blood triglycerides, adiponectin, and cholesterol were measured. Weights of the liver tissue, ALT, and AST of the mice in the azelaic acid administration group to which azelaic acid was orally administered for 6 weeks and the control group were measured.

3T3-L1 adipocytes [2] = assay: Western blot of phosphorylation of CREB and HSL in 3T3-L1 adipocytes; assay type: cell-based, mouse; details: azelaic acid 50 μM, 2 hours, vs control
Source text: When the PKA protein activity is increased by azelaic acid, phosphorylation of target proteins of PKA is increased. Therefore, phosphorylation of cAMP-response element binding protein (CREB) and hormone-sensitive lipase (HSL) known as target proteins of PKA was confirmed by a western blot experiment. […] Primary antibodies used in the experiment were anti-phospho-CREB and anti-phospho-HSL antibodies (Santa Cruz, Calif., U.S.).

3T3-L1 adipocytes [3] = assay: MTT assay, cytotoxicity of azelaic acid; assay type: cell-based, mouse; details: azelaic acid up to 500 μM, 24 hours
Protocol: In order to evaluate cytotoxicity of azelaic acid, MTT assay was performed.
The MTT assay is a test method using an ability of mitochondria reducing MTT tetrazolium, a yellow water-soluble substrate, to a blue purple water-insoluble MTT formazane […]. An MTT reagent was prepared by diluting C18H16BrN5S (Thiazoly Blue Tetrazolium Bromide) in phosphate buffered saline (PBS) at a concentration of 2 to 5 mg/ml.
First, after the 3T3-L1 adipocytes (4×10^5 cells/ml) were seeded in a 96-well plate and cultured at 37° C. under 5% CO2 conditions for 24 hours, the cultured 3T3-L1 adipocytes were treated with azelaic acid in a concentration range of 0 to 500 μM and cultured for 24 hours. After 100 μL of the MTT reagent was added to each test sample at a concentration of 4 mg/mL and cultured at 37° C. under 5% CO2 conditions for 4 hours, 100 μL of dimethyl sulfoxide (DMSO) was added thereto, and absorbance was measured at 540 nm. An absorbance value is to quantify an apoptotic effect due to toxicity using the principle that absorbance is in proportion to the number of living cells.

3T3-L1 adipocytes [4] = assay: Glycerol release (triglyceride hydrolysis) from 3T3-L1 adipocytes; assay type: cell-based, mouse; details: 50 μM azelaic acid, 2 hours
Protocol: Further, in order to confirm whether or not azelaic acid has an effect of hydrolyzing triglycerides, a release amount of glycerol corresponding to a product of triglyceride hydrolysis was measured.

expression of fatty acid oxidation-related genes (PPARa, CTP1, Acox2) upon treatment with azelaic acid (OR2S2): did not change
Structure (SMILES): O=C(O)CCCCCCCC(=O)O [azelaic acid, nonanedioic acid]
cAMP-PKA signaling (hAMSC cells): activated
calcium concentration (hAMSC cells): no change
inositol phosphate (IP) concentration (hAMSC cells): no change
release of glycerol (hAMSC cells): promoted
concentration of glycerol [1]: no change
concentration of blood cholesterol (ob/ob mice; 6 weeks): significantly decreased
concentration of blood triglyceride (ob/ob mice; 6 weeks): significantly decreased
weight of the liver tissue (ob/ob mice; 6 weeks): decreased
body weight (ob/ob mice; 6 weeks, on and after the first week, vs control group): significantly decreased
ALT (hepatotoxicity index) (ob/ob mice; 6 weeks, vs control group): no large difference
AST (hepatotoxicity index) (ob/ob mice; 6 weeks, vs control group): no large difference
abdominal fat (micro CT) (ob/ob mice; 6 weeks, vs control group): significantly decreased
subcutaneous fat (micro CT) (ob/ob mice; 6 weeks, vs control group): significantly decreased
total fat (micro CT) (ob/ob mice; 6 weeks, vs control group): significantly decreased
feed intake amount (ob/ob mice; final week, vs control group): no significant difference
phosphorylation of CREB (3T3-L1 adipocytes [2]): rapidly increased
phosphorylation of HSL (3T3-L1 adipocytes [2]): rapidly increased
cytotoxicity (MTT assay) (3T3-L1 adipocytes [3]): cytotoxicity was not observed; also recorded: toxicity was not exhibited
glycerol (product of triglyceride hydrolysis) increased as compared to the control (3T3-L1 adipocytes [4]): 46.7%
